Reference: patent publication US20080045514A1 (Cytovia, Inc., priority 2006, published 2008)
Counter-ions that a name gives are not always drawn.

Legend:
Type in all cases: cell-based
[1] = system: human B cell lymphoblastoid cell line Ramos; experiment: Caspase cascade activation (EC50), Ramos; details: Homo sapiens, RAMOS cells, read-out: caspase potency (EC50) RAMOS
Procedure, shortened: (§1)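 Test compound (0.016–10 μM final) is incubated with cells for 48 h at 37 °C. Caspase-3-like activity is measured by 3 h room-temperature cleavage of DEVD-R110 in PIPES pH 7.2 lysis buffer, with EC50 from sigmoidal fitting of background-corrected RFU relative to control.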

[2] = system: human colon carcinoma cell line HCT116; experiment: Caspase cascade activation (EC50), HCT116; details: Homo sapiens, HCT-116; HCT116 cells; caspase cascade activation; read-out: caspase potency (EC50) HCT116
Procedure, shortened: as §1

[3] = system: human lymphoma cell line Raji; experiment: Caspase cascade activation (EC50), Raji; details: Homo sapiens, RAJI cells, read-out: caspase potency (EC50) RAJI
Procedure, shortened: as §1

[4] = system: human lymphoma cell line Raji; experiment: Inhibition of cell proliferation (GI50), Raji; details: Homo sapiens; Raji cells, 48 h, CellTiter-Glo
Procedure, shortened: (§2)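 48 h continuous treatment, 37 °C; final dose range 1 nM–10 μM; ATP-based luminescent viability (CellTiter-Glo); GI50 relative to 0.5 h start signal.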

[5] = system: human Burkitt's lymphoma cell line Namalwa; experiment: Caspase cascade activation (EC50), Namalwa; details: Homo sapiens, Burkitts lymphoma cell; Namalwa cells; caspase cascade activation; read-out: caspase potency (EC50) Namalwa
Procedure, shortened: as §1

[6] = system: human breast cancer cell line T-47D; experiment: Inhibition of cell proliferation (GI50), T47D; details: Homo sapiens; T47D cells, 48 h, CellTiter-Glo
Procedure: (§3) Human breast cancer cell lines T-47D, human hepatocellular carcinoma cell line SNU398, human colon carcinoma cell line HCT116, human lung cancer cell line H1299, human leukemia cell line K562, human lymphoma cell line Raji, human B cell lymphoblastoid cell line Ramos, and human Burkitt's lymphoma cell line Namalwa were grown and harvested as in Example 100. An aliquot of […] of cells (4.4×10^4 cells/mL) was added to a well of a 96-well microtiter plate containing 5 μL of a 10% DMSO in RPMI-1640 media solution containing 10 nM to 100 μM of 3-(2-chlorophenyl)-6-(3,4-methylenedioxyphenyl)-7H-[1,2,4]triazolo[3,4-b][1,3,4]thiadiazine (1 nM to 10 μM final). An aliquot of 45 μL of cells was added to a well of a 96-well microtiter plate containing 5 μL of a 10% DMSO in RPMI-1640 media solution without compound as the control sample for maximal cell proliferation (LMax). The samples were mixed by agitation and then incubated at 37° C. for 48 h in a 5% CO2-95% humidity incubator. After incubation, the samples were removed from the incubator and 25 μL of CellTiter-Glo™ reagent (Promega) was added. The samples were mixed by agitation and incubated at room temperature for 10-15 min. Plates were then read using a luminescent plate reader (Model SPECTRAfluor Plus, Tecan) to give Ltest values.
(§4) The samples were mixed by agitation and then incubated at 37° C. for 0.5 h in a 5% CO2-95% humidity incubator. After incubation, the samples were removed from the incubator and 25 μL of CellTiter-Glo™ reagent (Promega) was added. The samples were mixed by agitation and incubated at […] 10-15 min at room temperature in a 5% CO2-95% humidity incubator. Fluorescence was read as above, (LStart) defining luminescence for initial cell number used as baseline in GI50 determinations.
(§5) Calculation: GI50 (dose for 50% inhibition of cell proliferation) is the concentration where [(Ltest−LStart)/(LMax−LStart)]=0.5.

[7] = system: human Burkitt's lymphoma cell line Namalwa; experiment: Inhibition of cell proliferation (GI50), Namalwa; details: Homo sapiens, Burkitts lymphoma cell; Namalwa cells, 48 h, CellTiter-Glo
Procedure, shortened: as §2

[8] = system: human colon carcinoma cell line HCT116; experiment: Inhibition of cell proliferation (GI50), HCT116; details: Homo sapiens; HCT 116 cells, 48 h, CellTiter-Glo
Procedure, shortened: as §2

[9] = system: human hepatocellular carcinoma cell line SNU398; experiment: Inhibition of cell proliferation (GI50), SNU398; details: Homo sapiens; SNU 398 cells, 48 h, CellTiter-Glo
Procedure: as §3, §4, §5

[10] = system: human leukemia cell line K562; experiment: Inhibition of cell proliferation (GI50), K562; details: Homo sapiens; K562 cells, 48 h, CellTiter-Glo
Procedure, shortened: as §2

[11] = system: human breast cancer cell line T-47D; experiment: Caspase cascade activation (EC50), T-47D; details: Homo sapiens; T47D cells; caspase cascade activation; read-out: caspase potency (EC50) T47D
Procedure, shortened: as §1

[12] = system: human B cell lymphoblastoid cell line Ramos; experiment: Inhibition of cell proliferation (GI50), Ramos; details: Homo sapiens; Ramos cells, 48 h, CellTiter-Glo
Procedure, shortened: as §2

[13] = system: human hepatocellular carcinoma cell line SNU398; experiment: Caspase cascade activation (EC50), SNU398; details: Homo sapiens, SNU-398; SNU398 cells; caspase cascade activation; read-out: caspase potency (EC50) SNU398
Procedure, shortened: as §1

[14] = system: human lung cancer cell line H1299; experiment: Inhibition of cell proliferation (GI50), H1299; details: NCI-H1299, H1299 cells, 48 h, CellTiter-Glo
Procedure: as §3, §4, §5

[15] = system: human cancer cell line H1299; experiment: Caspase cascade activation (EC50), H1299; details: NCI-H1299, H1299 cells, read-out: caspase potency (EC50) H1299
Procedure, shortened: as §1

Structure (SMILES) | EC50 [1] | EC50 [2] | EC50 [3] | GI50 [4] | EC50 [5] | GI50 [6] | GI50 [7] | GI50 [8] | GI50 [9] | GI50 [10] | EC50 [11] | GI50 [12] | EC50 [13] | GI50 [14] | EC50 [15]
c1cc2c(cc1C1=Nn3c(nnc3-c3n[nH]c4c3CCC4)SC1)OCO2 [Example W2] | 523 nM | 599 nM | 710 nM | 3000 nM | 592 nM | 1500 nM | 2550 nM | 5900 nM | 294 nM | 1870 nM | 431 nM | 1290 nM | 506 nM | – | –
COc1ccc(C2=Nn3c(nnc3-c3ccc(OC)c(OC)c3)SC2)cc1OC [Example N1, 3-(3,4-Dimethoxyphenyl)-6-(3,4-dimethoxyphenyl)-7H-[1,2,4]triazolo[3,4-b][1,3,4]thiadiazine] | 586 nM | 2480 nM | 570 nM | – | 556 nM | 2650 nM | – | – | – | – | 2220 nM | – | 1310 nM | 1940 nM | 2420 nM
COc1ccc(C2=Nn3c(nnc3-c3cc(OC)cc(OC)c3)SC2)cc1 [Example 20, 3-(3,5-Dimethoxyphenyl)-6-(4-methoxyphenyl)-7H-[1,2,4]triazolo[3,4-b][1,3,4]thiadiazine hydrobromide] | 36 nM | – | 95 nM | – | 55 nM | 373 nM | 13 nM | 99 nM | 11 nM | – | – | – | – | – | –
Clc1ccc(-c2nnc3n2N=C(c2ccc4c(c2)OCO4)CS3)cc1 [G, 3-(4-Chlorophenyl)-6-(3,4-methylenedioxyphenyl)-7H-[1,2,4]triazolo[3,4-b][1,3,4]thiadiazine] | 481 nM | 849 nM | 393 nM | – | 265 nM | 97 nM | – | – | – | – | 513 nM | – | 273 nM | 307 nM | 1420 nM
Cc1cccc(-c2nnc3n2N=C(c2ccc4c(c2)OCO4)CS3)c1 [Example T, 3-(3-Methylphenyl)-6-(3,4-methylenedioxyphenyl)-7H-[1,2,4]triazolo[3,4-b][1,3,4]thiadiazine] | 262 nM | 471 nM | 221 nM | – | 261 nM | 375 nM | – | – | – | – | 345 nM | – | 243 nM | 314 nM | 1230 nM
COc1ccccc1-c1nnc2n1N=C(c1ccc(C)cc1)CS2 [Example 8, 3-(2-Methoxyphenyl)-6-(4-methylphenyl)-7H-[1,2,4]triazolo[3,4-b][1,3,4]thiadiazine hydrochloride] | 30 nM | 60 nM | 57 nM | 27 nM | 31 nM | 17 nM | 66 nM | 15 nM | 150 nM | 43 nM | 146 nM | 16 nM | 25 nM | – | –
CCOc1ccccc1-c1nnc2n1N=C(c1ccc(C)cc1)CS2 [Example 19, 3-(2-Ethoxyphenyl)-6-(4-methylphenyl)-7H-[1,2,4]triazolo[3,4-b][1,3,4]thiadiazine hydrobromide] | 20 nM | 32 nM | 29 nM | – | 17 nM | 48 nM | 12 nM | 67 nM | 12 nM | – | 35 nM | – | 24 nM | – | –
Cc1ccc(C2=Nn3c(nnc3-c3ccccc3C)SC2)cc1N [Example 61, 6-(3-Amino-4-methylphenyl)-3-(2-methylphenyl)-7H-[1,2,4]triazolo[3,4-b][1,3,4]thiadiazine] | – | 137 nM | – | – | 71 nM | 269 nM | 150 nM | 400 nM | 228 nM | – | 330 nM | – | 109 nM | – | –
COc1cc(-c2nnc3n2N=C(c2ccc(N)cc2)CS3)cc(OC)c1OC [Example 66, 6-(4-Aminophenyl)-3-(3,4,5-trimethoxyphenyl)-7H-[1,2,4]triazolo[3,4-b][1,3,4]thiadiazine] | – | 29 nM | – | – | 16 nM | 47 nM | 43 nM | 127 nM | 24 nM | – | 72 nM | – | 21 nM | – | –
COc1ccccc1-c1nnc2n1N=C(c1ccc(N=[N+]=[N-])cc1)CS2 [Example 76, 6-(4-Azidophenyl)-3-(2-methoxyphenyl)-7H-[1,2,4]triazolo[3,4-b][1,3,4]thiadiazine] | – | 72 nM | – | – | 62 nM | 34 nM | 55 nM | 109 nM | 23 nM | – | 93 nM | – | 54 nM | – | –
CCN(CC)c1ccc(C2=Nn3c(nnc3-c3cc(OC)c(OC)c(OC)c3)SC2)cc1 [Example 21, 6-(4-Diethylaminophenyl)-3-(3,4,5-trimethoxyphenyl)-7H-[1,2,4]triazolo[3,4-b][1,3,4]thiadiazine hydrochloride] | 272 nM | – | 434 nM | – | 280 nM | 185 nM | 176 nM | 680 nM | 20 nM | – | – | – | – | – | –
CSc1ccccc1-c1nnc2n1N=C(c1ccc(C)cc1)CS2 [Example 71, 3-(2-Methylthiophenyl)-6-(4-methylphenyl)-7H-[1,2,4]triazolo[3,4-b][1,3,4]thiadiazine] | – | 76 nM | – | – | 65 nM | 276 nM | 77 nM | 169 nM | 91 nM | – | 453 nM | – | 70 nM | – | –
Cc1ccc(C2=Nn3c(nnc3-c3ccc(Cl)cc3C)SC2)cc1 [Example 81, 3-(4-Chloro-2-methylphenyl)-6-(4-methylphenyl)-7H-[1,2,4]triazolo[3,4-b][1,3,4]thiadiazine] | – | 67 nM | – | – | 55 nM | 255 nM | 18 nM | 79 nM | 21 nM | – | 270 nM | – | 39 nM | – | –
COc1ccc(C2=Nn3c(nnc3-c3ccc(OC)cc3OC)SC2)cc1 [Example 18, 3-(2,4-Dimethoxyphenyl)-6-(4-methoxyphenyl)-7H-[1,2,4]triazolo[3,4-b][1,3,4]thiadiazine hydrochloride] | 7 nM | 17 nM | 15 nM | – | 7 nM | 28 nM | 6 nM | 34 nM | 1 nM | – | 32 nM | – | 6 nM | – | –
COc1ccccc1-c1nnc2n1N=C(c1ccc(N)cc1)CS2 [Example 75, 6-(4-Aminophenyl)-3-(2-methoxyphenyl)-7H-[1,2,4]triazolo[3,4-b][1,3,4]thiadiazine] | – | 266 nM | – | – | 136 nM | 345 nM | 179 nM | 867 nM | 180 nM | – | 238 nM | – | 203 nM | – | –
